For data set [1], the target named is T1, recombinant human Cox-2 (r-hu Cox-2, PGHS-2) (Homo sapiens, UniProt P35354).
T1 construct: made in house; host or cells: baculovirus/Sf9 insect cells (microsomes)
T1 sequence (P35354 18-604): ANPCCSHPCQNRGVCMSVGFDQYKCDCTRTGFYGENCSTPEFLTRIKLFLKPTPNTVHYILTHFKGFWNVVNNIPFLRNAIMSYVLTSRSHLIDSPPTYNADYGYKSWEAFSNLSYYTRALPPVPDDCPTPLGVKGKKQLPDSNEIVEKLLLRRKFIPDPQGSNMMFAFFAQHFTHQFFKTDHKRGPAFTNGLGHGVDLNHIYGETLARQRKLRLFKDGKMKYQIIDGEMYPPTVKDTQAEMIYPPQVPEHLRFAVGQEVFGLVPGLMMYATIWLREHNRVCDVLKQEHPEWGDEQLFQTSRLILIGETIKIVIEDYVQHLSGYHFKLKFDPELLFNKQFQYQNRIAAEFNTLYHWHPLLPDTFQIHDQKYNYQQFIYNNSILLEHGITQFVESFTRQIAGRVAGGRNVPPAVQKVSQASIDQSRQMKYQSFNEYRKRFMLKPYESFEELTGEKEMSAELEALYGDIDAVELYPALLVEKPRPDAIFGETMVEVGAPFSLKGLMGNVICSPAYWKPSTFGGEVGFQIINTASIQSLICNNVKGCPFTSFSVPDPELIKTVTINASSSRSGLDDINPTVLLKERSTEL
The data set is described as follows: Recombinant human PGHS-2 (r-hu Cox-2) enzyme assay, PGE2 by EIA. Particulars: for IC50: read-out: r-hu COX2 IC50 (parenthetical values). Type of data set: biochemical. Here is the method: (§1) To compare the mean responses of the treatment groups, analysis of variance was applied. Percent inhibition values were determined by comparing the individual treatment mean values to the mean of the control group. Linear regression was used to estimate IC50's/ED50's in appropriate assays.
(§2) EIA reagents for prostaglandin determination were purchased from Perseptive Diagnostics, (Cambridge, Mass.). Prostaglandin E2 (PGE2) levels in lavage fluids were determined after the samples were dried under nitrogen and reconstituted with assay buffer. PGE2 levels in enzyme assays or cell culture media were measured against standards prepared in the same milieu. The immunoassays were conducted as recommended by the manufacturer. The EIA was conducted in 96 well microtiter plates (Nunc Roskilde, Denmark) and optical density was measured using a microplate reader (Vmax, Molecular Devices Corp., Menlo Park, Calif.).
(§3) Inhibition of prostaglandin biosynthesis in vitro was evaluated using recombinant human Cox-1 (r-hu Cox-1) and Cox-2 (r-hu Cox-2) enzyme assays. […] The reaction was allowed to run for 2.5 minutes at room temperature prior to quenching with HCl and neutralization with NaOH. PGE2 production in the presence and absence of the drug was determined by EIA analysis. The EIA was conducted in 96 well microtiter plates (Nunc Roskilde, Denmark) and optical density was measured using a microplate reader (Vmax, Molecular Devices Corp., Menlo Park, Calif.). EIA reagent for prostaglandin determination were purchased from Perseptive Diagnostics (Cambridge, Mass.). PGE2 levels were measured against standards prepared in the same milieu. The immunoassays were conducted as recommended by the manufacturer.
(§4) The compounds are designated by the Example Number. […] Values for Cox-2 inhibition that are parenthetical indicate IC50 values.

For data set [2], the target named is T2, recombinant human Cox-1 (r-hu Cox-1, PGHS-1) (Homo sapiens, UniProt P23219).
T2 construct: made in house; host or cells: baculovirus/Sf9 insect cells (microsomes)
T2 sequence (P23219 24-599): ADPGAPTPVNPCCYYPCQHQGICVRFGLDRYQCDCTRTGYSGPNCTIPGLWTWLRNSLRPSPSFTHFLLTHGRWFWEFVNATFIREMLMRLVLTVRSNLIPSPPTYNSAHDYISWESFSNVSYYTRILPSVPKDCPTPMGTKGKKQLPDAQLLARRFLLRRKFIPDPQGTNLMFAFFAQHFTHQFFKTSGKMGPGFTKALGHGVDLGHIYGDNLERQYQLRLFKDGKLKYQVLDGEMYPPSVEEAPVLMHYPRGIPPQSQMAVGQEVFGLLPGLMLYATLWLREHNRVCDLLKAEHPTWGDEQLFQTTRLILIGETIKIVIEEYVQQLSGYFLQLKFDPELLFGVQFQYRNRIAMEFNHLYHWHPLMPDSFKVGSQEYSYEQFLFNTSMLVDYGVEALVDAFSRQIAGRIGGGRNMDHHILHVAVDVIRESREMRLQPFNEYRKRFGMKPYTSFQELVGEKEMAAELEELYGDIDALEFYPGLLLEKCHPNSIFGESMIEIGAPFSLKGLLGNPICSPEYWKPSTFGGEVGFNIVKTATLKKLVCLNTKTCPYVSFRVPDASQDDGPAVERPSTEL
Briefly: Recombinant human PGHS-1 (r-hu Cox-1) enzyme assay, PGE2 by EIA. Type of data set: biochemical. Here is the method: as §1, §2, §3, §4

The mark [3] stands for this setting: at 100 nM, read-out: r-hu COX2 percent inhibition.
[4] abbreviates: at 100 μM, read-out: r-hu COX1 percent inhibition.

`CS(=O)(=O)c1ccc(-c2nn3c(c2-c2ccc(F)cc2)Oc2ccccc2C3)cc1` [Example 6, 3-(4-Fluorophenyl)-2-(4-(methylsulphonyl)phenyl)-5H-pyrazolo[1,5-b][1,3]-benzoxazine]: the “r-hu COX2 percent inhibition” value in data set [1] (at 100 nM) was 82 @ 100%. Moreover, the “r-hu COX1 percent inhibition” value in data set [2] (at 100 μM) is given as 25 @ 100%.
With `C=CCn1nc(Oc2ccccc2)c(-c2ccc(F)cc2)c1-c1ccc(S(C)(=O)=O)cc1` [Example 14, 1-Allyl-4-Fluorophenyl-5-(4-(methylsulphonyl)phenyl)-3-phenoxy-1H-pyrazole], the “r-hu COX2 percent inhibition” value in data set [1] (at 10000 nM) was 37 @ 10000%. Further, the “r-hu COX1 percent inhibition” value in data set [2] (at 100 μM) is 45 @ 100%.
What is called inhibition is the change of the read-out against control, counted positive when it falls. Broadly, the melting point is the temperature, or range, at which the solid turns liquid. The molecule `CS(=O)(=O)c1ccc(-c2c(-c3ccc(F)cc3)c(OCC(=O)c3cccs3)nn2CC(=O)c2cccs2)cc1` [Example 20A, 2-{4-(4-Fluorophenyl)-5-(4-(methylsulphonyl)phenyl)-3-[2-(2-thienyl)-2-oxoethoxy]-1H-pyrazol-1-yl}-1-(2-thienyl)ethan-1-one] returned a melting point of 136 to 138 °C. The inhibition at 0.1 µM in data set [1] (setting [3]) is 38%. The inhibition at 10 µM in data set [2] (at 10 μM, read-out: r-hu COX1 percent inhibition) worked out at 81%.
Regarding `CS(=O)(=O)c1ccc(-c2c(-c3ccc(F)cc3)c(OCc3ccc(F)cc3)nn2Cc2ccc(F)cc2)cc1` [Example 8, 4-(4-fluorophenyl)-5-(4-(methylsulphonyl)phenyl)-1-(4-fluorobenzyl)-3-((4-fluorobenzyl)oxy)-1H-pyrazole], the inhibition at 10 µM in data set [1] (at 10000 nM, read-out: r-hu COX2 percent inhibition) was 48%. Further, the inhibition at 100 µM in data set [2] (setting [4]) is 29%.
Molecule `CCn1nc(OC2CSCCC2=O)c(-c2ccc(F)cc2)c1-c1ccc(S(C)(=O)=O)cc1` (stereo not shown) [Example 24, 3-[(1-Ethyl-4-(4-fluorophenyl)-5-(4-(methylsulphonyl)phenyl)-1H-pyrazol-3-yl)oxy]tetrahydro-4H-thiopyran-4-one] had a melting point of 210 to 211 °C. In addition, the inhibition at 0.1 µM in data set [1] (setting [3]) came to 37%. Also, the inhibition at 100 µM in data set [2] (setting [4]) is 20%.
Regarding `CS(=O)(=O)c1ccc(-c2nn3c(c2-c2ccc(F)cc2)OCC=CC3)cc1` [Example 4, 3-(4-Fluorophenyl)-2-(4-methylsulponylphenyl)-5,8-dihydropyrazolo[5,1-b][1,3]oxazepine], in data set [1] (at 10000 nM), the “r-hu COX2 percent inhibition” value is given as 62 @ 10000%. For the same molecule, the “r-hu COX1 percent inhibition” value in data set [2] (at 100 μM) is listed as 12 @ 100%.
Consider `C=CCOc1nn(CC=C)c(-c2ccc(S(C)(=O)=O)cc2)c1-c1ccc(F)cc1` [Example 9, 1-allyl-3-(allyloxy)-4-(4-fluorophenyl)-5-(4-(methylsulphonyl)phenyl)-1H-pyrazole], for which, in data set [1] (at 1000 nM, read-out: r-hu COX2 percent inhibition), the inhibition at 1 µM turned out to be 62%. In addition, the inhibition at 100 µM in data set [2] (setting [4]) came to 36%.
`CCn1nc(OCC(=O)C(C)(C)C)c(-c2ccc(F)cc2)c1-c1ccc(S(N)(=O)=O)cc1` [Example 29, 1-[(1-Ethyl-4-(4-fluorophenyl)-5-(4-(aminosulphonyl)phenyl)-1H-pyrazol-3-yl)oxy]-3,3-dimethylbutan-2-one] had a melting point of 196 to 198 °C. Besides, the inhibition at 0.1 µM in data set [1] (setting [3]) was found to be 55%. Further, the inhibition at 100 µM in data set [2] (setting [4]) turned out to be 54%.
For orientation: IC50 means the point on the concentration scale where inhibition reaches its midpoint. `CCn1nc(OCC(=O)C(C)(C)C)c(-c2ccc(F)cc2)c1-c1ccc(S(C)(=O)=O)cc1` [Example 27, 1-[(1-Ethyl-4-(4-fluorophenyl)-5-(4-(methylsulphonyl)phenyl)-1H-pyrazol-3-yl)oxy]-3,3-dimethylbutan-2-one]: the melting point is 144 to 146 °C. For the same molecule, in data set [1], the IC50 was 5 nM. For the same molecule, in data set [2] (setting [4]), the inhibition at 100 µM turned out to be 0%.
For the molecule `CC(C)(C)c1coc2c(-c3ccc(F)cc3)c(-c3ccc(S(N)(=O)=O)cc3)nn12` [Example 55], the “r-hu COX2 percent inhibition” value in data set [1] (at 100 nM) was 88 @ 100%. Moreover, the “r-hu COX1 percent inhibition” value in data set [2] (at 10 μM) is on record as 99 @ 10%.
`CS(=O)(=O)c1ccc(-c2c(-c3ccc(F)cc3)c(OCc3ccccc3)nn2Cc2ccccc2)cc1` [Example 7, 4-(4-Fluorophenyl)-5-(4-(methylsulphonyl)phenyl)-3-benzyloxy-1-benzyl-1H-pyrazole] had a melting point of 174 to 175 °C. For the same molecule, in data set [1] (setting [3]), the inhibition at 0.1 µM was 42%. Also, the inhibition at 100 µM in data set [2] (setting [4]) was 26%.
`C=CCn1nc(OCC(=O)c2cccs2)c(-c2ccc(F)cc2)c1-c1ccc(S(C)(=O)=O)cc1` [Example 22, 2-[(1-Allyl-4-(4-fluorophenyl)-5-(4-(methylsulphonyl)phenyl)-1H-pyrazol-3-yl)oxy]-1-(2-thienyl)ethan-1-one]: the melting point lay within 146 to 148 °C. Further, the IC50 in data set [1] came out at 60 nM. Further, in data set [2] (setting [4]), the inhibition at 100 µM stood at 0%.
Take `CS(=O)(=O)c1ccc(-c2[nH]nc(OC3CCCCC3=O)c2-c2ccc(F)cc2)cc1` (stereo not shown) [Example 15, 2-{[4-(4-Fluorophenyl)-5-(4-methylsulphonylpheny)-1H-pyrazol-3-yl]oxy}cyclohexanone]: the “r-hu COX2 percent inhibition” value in data set [1] (at 100 nM) is reported as 47 @ 100%. Also, the “r-hu COX1 percent inhibition” value in data set [2] (at 10 μM) is listed as 69 @ 10%.
For `NS(=O)(=O)c1ccc(-c2nn3c(-c4ccc(F)cc4)coc3c2-c2ccc(F)cc2)cc1` [Example 57, 4-[3,7-Bis(4-fluorophenyl)pyrazolo[5,1-b][1,3]oxazol-6-yl]benzenesulphonamide], the melting point lay in the range of 235 to 237 °C.
The same measure, in the same setting: then `CS(=O)(=O)c1ccc(-c2c(-c3ccc(F)cc3)nn3c(-c4ccc(F)cc4)coc23)cc1` [Example 73, 3,6-Bis(4-fluorophenyl)-7-(4-methylsulfonylphenyl)pyrazolo[5,1-b][1,3]oxazole], with 289 to 291 °C.
Same read-out and setting: to `CCOC(=O)c1oc2c(-c3ccc(F)cc3)c(-c3ccc(S(C)(=O)=O)cc3)nn2c1C` [Example 51, Ethyl 7-(4-Fluorophenyl)-6-(4-methylsulfonylphenyl)-3-methylpyrazolo[5,1-b][1,3]oxazole-2-carboxylate] belongs 203 to 204 °C.
Consider `CCn1nc(OCC(=O)c2cccs2)c(-c2ccc(F)cc2)c1-c1ccc(S(C)(=O)=O)cc1` [Example 21, 2-[(1-Ethyl-4-(4-fluorophenyl)-5-(4-(methylsulphonyl)phenyl)-1H-pyrazol-3-yl)oxy]-1-(2-thienyl)ethan-1-one], for which the melting point lay in the range of 163 to 164 °C. Also, the IC50 in data set [1] worked out at 31 nM. The inhibition at 100 µM in data set [2] (setting [4]) amounted to 3%.
Take `CCC(=O)COc1nn(CC(=O)CC)c(-c2ccc(F)cc2)c1-c1ccc(S(C)(=O)=O)cc1` [Example 77, 1-[5-(4-Fluorophenyl)-4-(4-(methylsulphonyl)phenyl)-3-(2-oxobutoxy)-1H-pyrazol-1-yl]butan-2-one]: the melting point is 56 to 58 °C.
`CCn1nc(OCC(=O)c2ccc(F)cc2)c(-c2ccc(F)cc2)c1-c1ccc(OC)cc1` [Example 18, 2-{[1-Ethyl-5-(4-methoxyphenyl)-4-(4-fluorophenyl)-1H-pyrazol-3-yl]oxy}-1-(4-fluorophenyl)ethan-1-one] had a melting point of 170 to 171 °C. In addition, in data set [1] (setting [3]), the inhibition at 0.1 µM was found to be 50%. Besides, in data set [2] (setting [4]), the inhibition at 100 µM was 7%.
Molecule `CS(=O)(=O)c1ccc(-c2nn3c(C4C5CC6CC(C5)CC4C6)coc3c2-c2ccc(F)cc2)cc1` (stereo not shown) [Example 39, 3-(2-Adamantyl)-7-(4-fluorophenyl)-6-(4-(methylsulphonyl)phenyl)pyrazolo[5,1-b][1,3]oxazole] came in with a melting point of 128 to 131 °C.

(Values after patent publication US6472416B1, “Sulfonylphenylpyrazole compounds useful as COX-2 inhibitors” (Abbott Laboratories, priority 1999, dated 2002).)
